Measured values as given in patent US20250145642A1, “BICYCLIC HETEROARENES AND METHODS OF THEIR USE” (Kineta, Inc., priority 2021, published 2025).

Target: full-length human PIKFYVE (N-terminal GST-fusion) (Homo sapiens (Human), UniProt Q9Y2I7, L932S/Q1183K/Q995L/S1033A/S696N/T998S)
Test: PIKfyve biochemical assay (ADP-Glo Kinase assay, Carna Biosciences)
Details: ADP-Glo, full-length human GST-PIKFYVE, 10 μM to 3 nM; read-out: hPIKfyve IC50
Outline: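 Baculovirus-expressed, glutathione-purified GST-tagged full-length human PIKFYVE (S696N/L932S/Q995L/T998S/S1033A/Q1183K) reacted with substrate and ATP in 50 mM MOPS, 1 mM DTT, pH 7.2, 1 h at room temperature. ADP formed read by ADP-Glo luminescence.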

Chain of full-length human PIKFYVE (N-terminal GST-fusion) (Q9Y2I7 whole entry S696N/L932S/Q995L/T998S/S1033A/Q1183K, the tested form may be a part): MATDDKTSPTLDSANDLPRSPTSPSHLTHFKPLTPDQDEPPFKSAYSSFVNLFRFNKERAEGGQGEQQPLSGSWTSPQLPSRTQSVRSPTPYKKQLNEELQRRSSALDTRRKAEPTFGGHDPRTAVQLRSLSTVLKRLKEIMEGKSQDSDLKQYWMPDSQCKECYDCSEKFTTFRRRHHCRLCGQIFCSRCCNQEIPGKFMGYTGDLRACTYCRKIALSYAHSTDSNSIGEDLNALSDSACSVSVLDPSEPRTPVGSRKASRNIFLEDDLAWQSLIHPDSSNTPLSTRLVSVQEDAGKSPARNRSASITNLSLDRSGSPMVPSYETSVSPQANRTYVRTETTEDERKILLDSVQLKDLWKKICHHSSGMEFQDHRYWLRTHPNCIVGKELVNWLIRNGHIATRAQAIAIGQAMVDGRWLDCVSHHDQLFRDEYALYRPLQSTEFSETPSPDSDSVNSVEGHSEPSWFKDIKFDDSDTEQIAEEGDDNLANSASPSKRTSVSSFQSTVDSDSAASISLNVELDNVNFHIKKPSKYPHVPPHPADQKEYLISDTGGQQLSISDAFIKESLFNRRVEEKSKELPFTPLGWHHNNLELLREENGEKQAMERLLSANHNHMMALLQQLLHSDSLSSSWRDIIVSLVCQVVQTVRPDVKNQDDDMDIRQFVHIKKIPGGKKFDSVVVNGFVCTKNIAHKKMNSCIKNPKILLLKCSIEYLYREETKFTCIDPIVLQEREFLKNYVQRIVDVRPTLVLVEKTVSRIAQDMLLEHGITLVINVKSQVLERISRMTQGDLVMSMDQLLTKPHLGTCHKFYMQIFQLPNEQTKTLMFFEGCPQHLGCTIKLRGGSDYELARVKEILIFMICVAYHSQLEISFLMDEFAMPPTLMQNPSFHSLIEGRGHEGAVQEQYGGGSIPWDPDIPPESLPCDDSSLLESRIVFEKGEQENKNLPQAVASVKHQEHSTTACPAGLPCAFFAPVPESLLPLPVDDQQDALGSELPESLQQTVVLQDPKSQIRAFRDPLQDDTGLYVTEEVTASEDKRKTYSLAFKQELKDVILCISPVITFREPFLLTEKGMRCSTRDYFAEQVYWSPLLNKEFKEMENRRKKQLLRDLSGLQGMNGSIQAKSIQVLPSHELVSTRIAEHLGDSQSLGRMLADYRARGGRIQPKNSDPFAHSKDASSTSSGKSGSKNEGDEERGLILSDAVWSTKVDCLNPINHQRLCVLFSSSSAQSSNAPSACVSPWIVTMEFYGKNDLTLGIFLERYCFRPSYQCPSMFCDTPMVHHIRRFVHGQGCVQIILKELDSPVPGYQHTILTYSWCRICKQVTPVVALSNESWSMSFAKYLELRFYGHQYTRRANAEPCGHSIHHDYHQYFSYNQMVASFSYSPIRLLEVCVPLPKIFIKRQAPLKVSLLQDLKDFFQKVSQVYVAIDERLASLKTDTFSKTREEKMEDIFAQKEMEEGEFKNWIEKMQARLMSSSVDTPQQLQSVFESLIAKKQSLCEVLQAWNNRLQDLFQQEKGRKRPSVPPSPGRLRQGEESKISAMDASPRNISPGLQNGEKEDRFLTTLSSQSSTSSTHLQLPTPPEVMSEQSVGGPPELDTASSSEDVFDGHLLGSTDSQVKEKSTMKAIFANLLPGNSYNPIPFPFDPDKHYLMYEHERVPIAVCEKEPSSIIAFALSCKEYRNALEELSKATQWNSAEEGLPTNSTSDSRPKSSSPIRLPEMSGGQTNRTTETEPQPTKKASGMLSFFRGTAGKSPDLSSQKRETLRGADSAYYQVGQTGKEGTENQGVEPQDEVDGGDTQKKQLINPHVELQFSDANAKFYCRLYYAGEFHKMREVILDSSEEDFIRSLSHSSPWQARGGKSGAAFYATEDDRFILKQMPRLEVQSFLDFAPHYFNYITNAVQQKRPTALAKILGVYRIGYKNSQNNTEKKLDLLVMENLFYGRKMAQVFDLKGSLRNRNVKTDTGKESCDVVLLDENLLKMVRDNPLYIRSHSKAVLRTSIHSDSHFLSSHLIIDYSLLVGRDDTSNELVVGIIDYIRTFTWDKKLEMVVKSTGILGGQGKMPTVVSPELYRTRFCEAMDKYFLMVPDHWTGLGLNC

SMILES	IC50 [µM]
c1ccc(-c2ccn(-c3nc(N4CCOCC4)nc4c3CCN4c3ccncc3)n2)cc1 [Compound 84, 4-(4-(3-phenyl-1H-pyrazol-1-yl)-7-(pyridin-4-yl)-6,7-dihydro-6H-pyrrolo[2,3-d]pyrimidin-2-yl)morpholine]	0.01 to 0.1
Fc1cccc(N2CCc3c(C4CCOC4)nc(N4CCOCC4)nc32)c1 (centres unmarked) [Compound 94, 4-(7-(3-fluorophenyl)-4-(tetrahydro-furan-3-yl)-6,7-dihydro-5H-pyrrolo[2,3-d]pyrimidin-2-yl)morpholine]	0.1 to 1
CN1CCC(c2nc(N3CCOCC3)nc3c2CCN3c2cccnc2)CC1 [Compound 109, 4-(4-(1-methylpiperidin-4-yl)-7-(pyridin-3-yl)-6,7-dihydro-5H-pyrrolo[2,3-d]pyrimidin-2-yl)morpholine]	1 to 10
c1ccc(N2CCc3c(OCC4COC4)nc(N4CCOCC4)nc32)cc1 [Compound 20, 4-(4-(oxetan-3-ylmethoxy)-7-phenyl-6,7-dihydro-5H-pyrrolo[2,3-d]pyrimidin-2-yl)morpholine]	0.01 to 0.1
CC(C)(O)COc1nc(N2CCOCC2)nc2c1CCN2c1cccnc1 [Compound 19, 2-methyl-1-(2-morpholino-7-(pyridin-3-yl)-6,7-dihydro-5H-pyrrolo[2,3-d]pyrimidin-4-yloxy)propan-2-ol]	0.1 to 1
O=C(Cc1ccccc1)N1CCc2c(-c3ccncc3)nc(N3CCOCC3)nc21 [Compound 73, 1-(2-morpholino-4-(pyridin-4-yl)-5,6-dihydro-7H-pyrrolo[2,3-d]pyrimidin-7-yl)-2-phenylethan-1-one]	0.01 to 0.1
c1ccc(N2CCc3c(COCc4ccccn4)nc(N4CCOCC4)nc32)cc1 [Compound 62, 4-(7-phenyl-4-((pyridin-2-ylmethoxy)methyl)-6,7-dihydro-5H-pyrrolo[2,3-d]pyrimidin-2-yl)morpholine]	0.01 to 0.1
COc1cccc(-c2nccc(-c3nc(N4CCOCC4)nc4c3CCN4c3cccnc3)n2)c1 [Compound 123, 4-(4-(2-(3-methoxyphenyl)pyrimidin-4-yl)-7-(pyridin-3-yl)-6,7-dihydro-5H-pyrrolo[2,3-d]pyrimidin-2-yl)morpholine]	0.1 to 1
CN1CCCC(COc2nc(N3CCOCC3)nc3c2CCN3c2cnn(C)c2)C1 (centres unmarked) [Compound 18]	1 to 10
c1ccc(-n2cnc3c(-c4ccncc4)nc(N4CCOCC4)nc32)cc1 [Compound 128, 4-(9-phenyl-6-(pyridin-4-yl)-9H-purin-2-yl)morpholine]	0.01 to 0.1
c1ccc(N2CCc3c(-c4cccnc4)nc(N4CCOCC4)nc32)cc1 [Compound 91, 4-(7-phenyl-4-(pyridin-3-yl)-6,7-dihydro-5H-pyrrolo[2,3-d]pyrimidin-2-yl)morpholine]	0.01 to 0.1
c1ccc(N2CCc3c(N4CCOCC4)nc(N4CCOCC4)nc32)cc1 [Compound 78, 4,4′-(7-phenyl-6,7-dihydro-5H-pyrrolo[2,3-d]pyrimidine-2,4-diyl)dimorpholine]	0.01 to 0.1
CN1CCN(c2nc(N3CCOCC3)nc3c2CCN3c2cccnc2)CC1 [Compound 81, 4-(4-(4-methylpiperazin-1-yl)-7-(pyridin-3-yl)-6,7-dihydro-5H-pyrrolo[2,3-d]pyrimidin-2-yl)morpholine]	1 to 10
O=C1COc2c(OCc3cccnc3)nc(N3CCOCC3)nc2N1c1ccccc1 [Compound 130, 2-morpholino-8-phenyl-4-(pyridin-3-ylmethoxy)-6H-pyrimido[5,4-b][1,4]oxazin-7(8H)-one]	0.1 to 1
c1ccc(-c2nccc(N3CCc4c(Oc5cccnc5)nc(N5CCOCC5)nc43)n2)cc1 [Compound 74, 4-(7-(2-phenylpyrimidin-4-yl)-4-(pyridin-3-yloxy)-6,7-dihydro-5H-pyrrolo[2,3-d]pyrimidin-2-yl)morpholine]	1 to 10
c1ccc(N2CCc3c(OCc4cccnc4)nc(N4CCOCC4)nc32)cc1 [Compound 25, 4-(7-phenyl-4-(pyridin-3-ylmethoxy)-6,7-dihydro-5H-pyrrolo[2,3-d]pyrimidin-2-yl)morpholine]	0.01 to 0.1
O=C(C1CC1)N1CCC(c2nc(N3CCOCC3)nc3c2CCN3c2ccccc2)C1 (centres unmarked) [Compound 118, cyclopropyl(3-(2-morpholino-7-phenyl-6,7-dihydro-5H-pyrrolo[2,3-d]pyrimidin-4-yl)pyrrolidin-1-yl)methanone]	< 0.01
CN1CCC(OCc2nc(N3CCOCC3)nc3c2CCN3c2cccnc2)C1 (centres unmarked) [Compound 66, 4-(4-((1-methylpyrrolidin-3-yloxy)methyl)-7-(pyridin-3-yl)-6,7-dihydro-5H-pyrrolo[2,3-d]pyrimidin-2-yl)morpholine]	1 to 10
CN1CCOC(COc2nc(N3CCOCC3)nc3c2CCN3c2cccnc2)C1 (centres unmarked) [Compound 12, 4-methyl-2-((2-morpholino-7-(pyridin-3-yl)-6,7-dihydro-5H-pyrrolo[2,3-d]pyrimidin-4-yloxy)methyl)morpholine]	0.1 to 1

SMILES	IC50 [µM]
c1ccc(N2CCc3c(-c4ccnnc4)nc(N4CCOCC4)nc32)cc1 [Compound 99, 4-(7-phenyl-4-(pyridazin-4-yl)-6,7-dihydro-5H-pyrrolo[2,3-d]pyrimidin-2-yl)morpholine]	0.01 to 0.1
CC(=O)N1CCC(c2nc(N3CCOCC3)nc3c2CCN3c2ccccc2)CC1 [Compound 120, 1-(4-(2-morpholino-7-phenyl-6,7-dihydro-5H-pyrrolo[2,3-d]pyrimidin-4-yl)piperidin-1-yl)ethan-1-one]	0.01 to 0.1
CN1CC(c2nc(N3CCOCC3)nc3c2CCN3c2ccccc2)C1 [Compound 117, 4-(4-(1-methylazetidin-3-yl)-7-phenyl-6,7-dihydro-5H-pyrrolo[2,3-d]pyrimidin-2-yl)morpholine]	0.1 to 1
Oc1ccc[n+](Cc2nc(N3CCOCC3)nc3c2CCN3c2ccccc2)c1 [Compound 60, 5-hydroxy-1-((2-morpholino-7-phenyl-6,7-dihydro-5H-pyrrolo[2,3-d]pyrimidin-4-yl)methyl)pyridin-1-ium-3-ylium]	0.1 to 1
c1ccc(N2CCc3c(NC4COC4)nc(N4CCOCC4)nc32)cc1 [Compound 76, 2-morpholino-N-(oxetan-3-yl)-7-phenyl-6,7-dihydro-5H-pyrrolo[2,3-d]pyrimidin-4-amine]	> 10
COc1cccc(N2CCc3c(OCC4CCCN(C)C4)nc(N4CCOCC4)nc32)c1 (centres unmarked) [Compound 13, 4-(7-(3-methoxyphenyl)-4-((1-methylpiperidin-3-yl)methoxy)-6,7-dihydro-5H-pyrrolo[2,3-d]pyrimidin-2-yl)morpholine]	0.01 to 0.1
CN1CCCC(COc2nc(N3CCOCC3)nc3c2CCN3c2ccnnc2)C1 (centres unmarked) [Compound 17, 4-(4-((1-methylpiperidin-3-yl)methoxy)-7-(pyridazin-4-yl)-6,7-dihydro-5H-pyrrolo[2,3-d]pyrimidin-2-yl)morpholine]	0.1 to 1
c1cncc(N2CCc3c(N4Cc5ccccc5C4)nc(N4CCOCC4)nc32)c1 [Compound 80, 4-(4-(isoindolin-2-yl)-7-(pyridin-3-yl)-6,7-dihydro-5H-pyrrolo[2,3-d]pyrimidin-2-yl)morpholine]	0.01 to 0.1
c1cc(-c2nc(N3CCOCC3)nc3c(-c4cnn(C5CC5)c4)c[nH]c23)ccn1 [Compound 140, 4-(7-(1-cyclopropyl-1H-pyrazol-4-yl)-4-(pyridin-4-yl)-5H-pyrrolo[3,2-d]pyrimidin-2-yl)morpholine]	0.01 to 0.1
c1ccc(N2CCc3c(-c4ccccn4)nc(N4CCOCC4)nc32)cc1 [Compound 90, 4-(7-phenyl-4-(pyridin-2-yl)-6,7-dihydro-5H-pyrrolo[2,3-d]pyrimidin-2-yl)morpholine]	0.1 to 1
Fc1cccc(N2CCc3c(-c4ccoc4)nc(N4CCOCC4)nc32)c1 [Compound 93, 4-(7-(3-fluorophenyl)-4-(furan-3-yl)-6,7-dihydro-5H-pyrrolo[2,3-d]pyrimidin-2-yl)morpholine]	0.01 to 0.1
CN1CCCC(c2nc(N3CCOCC3)nc3c2ncn3-c2cccnc2)C1 (centres unmarked) [Compound 127, 4-(6-(1-methylpiperidin-3-yl)-9-(pyridin-3-yl)-9H-purin-2-yl)morpholine]	> 10
Cc1cccc(/C=N/Nc2nc(N3CCOCC3)nc3c2CCN3c2cccnc2)c1 [Compound 82, (E)-4-(4-(2-(3-methylbenzylidene)hydrazineyl)-7-(pyridin-3-yl)-6,7-dihydro-6H-pyrrolo[2,3-d]pyrimidin-2-yl)morpholine]	< 0.01
c1cncc(-c2nc(N3CCOCC3)nc3c2CCN3c2cccnc2)c1 [Compound 106, 4-(4,7-di(pyridin-3-yl)-6,7-dihydro-5H-pyrrolo[2,3-d]pyrimidin-2-yl)morpholine]	0.01 to 0.1
O=c1ccccn1-c1nc(N2CCOCC2)nc2c1CCN2c1ccccc1 [Compound 50, 1-(2-morpholino-7-phenyl-6,7-dihydro-5H-pyrrolo[2,3-d]pyrimidin-4-yl)pyridin-2(1H)-one]	0.1 to 1
CN1CCC(c2nc(N3CCOCC3)nc3c2ncn3-c2ccccc2)C1 (centres unmarked) [Compound 126, 4-(6-(1-methylpyrrolidin-3-yl)-9-phenyl-9H-purin-2-yl)morpholine]	1 to 10
c1cncc(N2CCc3c(OCC4CCCO4)nc(N4CCOCC4)nc32)c1 (centres unmarked) [Compound 23, 4-(7-(pyridin-3-yl)-4-((tetrahydrofuran-2-yl)methoxy)-6,7-dihydro-6H-pyrrolo[2,3-d]pyrimidin-2-yl)morpholine]	0.1 to 1
CN1CCC(N2CCc3c(OCc4cccnc4)nc(N4CCOCC4)nc32)CC1 [Compound 42, 4-(7-(1-methylpiperidin-4-yl)-4-(pyridin-3-ylmethoxy)-6,7-dihydro-5H-pyrrolo[2,3-d]pyrimidin-2-yl)morpholine]	> 10
c1ccc(N2CCc3c(COC4CCOCC4)nc(N4CCOCC4)nc32)cc1 [Compound 61, 4-(7-phenyl-4-(((tetrahydro-2H-pyran-4-yl)oxy)methyl)-6,7-dihydro-5H-pyrrolo[2,3-d]pyrimidin-2-yl)morpholine]	0.1 to 1
